Source: ChEMBL document CHEMBL3596146, “Design, synthesis, and biological evaluation of a series of alkoxy-3-indolylacetic acids as peroxisome proliferator-activated receptor γ/δ agonists” (Bioorg Med Chem, 2015)
Calls of active or inactive are those of the source. No cut-off for these calls is given here.

Legend:
[1] = tested on: Mus musculus; experiment: Increase in body weight in C57BLKS/J-Lepr/Lepr db/db mouse at 10 mg/kg, po qd for 18 days administered via gavage measured on day 16 relative to untreated control; assay type: ADME, organism-based; conditions: in vivo, 432 h
[2] = tested on: Mus musculus; experiment: Decrease in fasting blood glucose level in C57BLKS/J-Lepr/Lepr db/db mouse at 10 mg/kg, po qd for 18 days administered via gavage by ELISA; assay type: functional, organism-based
[3] = tested on: Mus musculus; experiment: Decrease in serum insulin level in C57BLKS/J-Lepr/Lepr db/db mouse at 10 mg/kg, po qd for 18 days administered via gavage by ELISA; assay type: functional, organism-based
[4] = tested on: Mus musculus; experiment: Decrease in serum Hb1Ac level in C57BLKS/J-Lepr/Lepr db/db mouse at 10 mg/kg, po qd for 18 days administered via gavage by ELISA; assay type: functional, organism-based
[5] = tested on: Mus musculus; experiment: Increase in triglyceride content in C57BLKS/J-Lepr/Lepr db/db mouse liver at 10 mg/kg, po administered via gavage by hematoxylin-eosin staining; assay type: functional
[6] = target: T1, Peroxisome proliferator-activated receptor alpha (Homo sapiens) (UniProt Q07869); experiment: Agonist activity at PPAR-alpha (unknown origin) expressed in CV-1 cells co-transfected with tk-PPRE-luciferase vector at 10 uM after 24 hrs by transactivation assay relative to GW7647; assay type: cell-based
T1 sequence (whole entry): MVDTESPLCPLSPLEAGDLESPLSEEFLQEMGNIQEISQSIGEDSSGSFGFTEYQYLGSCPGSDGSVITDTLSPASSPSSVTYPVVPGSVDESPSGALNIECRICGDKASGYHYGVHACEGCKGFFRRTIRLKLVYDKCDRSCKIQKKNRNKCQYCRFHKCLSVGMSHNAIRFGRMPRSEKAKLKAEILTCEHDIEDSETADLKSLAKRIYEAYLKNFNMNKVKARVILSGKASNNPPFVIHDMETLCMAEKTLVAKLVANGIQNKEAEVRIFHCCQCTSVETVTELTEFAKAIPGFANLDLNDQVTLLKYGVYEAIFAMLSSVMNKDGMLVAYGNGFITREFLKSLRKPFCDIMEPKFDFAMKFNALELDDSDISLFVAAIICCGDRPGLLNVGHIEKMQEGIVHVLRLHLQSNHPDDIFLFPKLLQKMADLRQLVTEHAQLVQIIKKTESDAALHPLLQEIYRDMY

[7] = target: T2, Peroxisome proliferator-activated receptor gamma (Homo sapiens) (UniProt P37231); experiment: Agonist activity at PPAR-gamma (unknown origin) expressed in CV-1 cells co-transfected with tk-PPRE-luciferase vector at 10 uM after 24 hrs by transactivation assay relative to rosiglitazone; assay type: cell-based
T2 sequence (whole entry): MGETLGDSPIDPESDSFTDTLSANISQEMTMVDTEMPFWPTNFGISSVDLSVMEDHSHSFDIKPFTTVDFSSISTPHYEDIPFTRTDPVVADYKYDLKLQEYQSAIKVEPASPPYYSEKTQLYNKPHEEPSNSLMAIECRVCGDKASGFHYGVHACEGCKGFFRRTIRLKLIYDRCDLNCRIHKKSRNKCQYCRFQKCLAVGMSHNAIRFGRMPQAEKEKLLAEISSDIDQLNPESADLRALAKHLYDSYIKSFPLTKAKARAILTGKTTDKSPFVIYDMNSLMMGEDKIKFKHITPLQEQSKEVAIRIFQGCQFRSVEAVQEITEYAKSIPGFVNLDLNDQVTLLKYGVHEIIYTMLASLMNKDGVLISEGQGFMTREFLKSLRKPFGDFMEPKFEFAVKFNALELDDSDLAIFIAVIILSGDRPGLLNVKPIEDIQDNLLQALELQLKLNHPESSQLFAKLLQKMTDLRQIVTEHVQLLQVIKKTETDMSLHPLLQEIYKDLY

[8] = target: T3, Peroxisome proliferator-activated receptor delta (Homo sapiens) (UniProt Q03181); experiment: Agonist activity at PPAR-delta (unknown origin) expressed in HEK293t cells co-transfected with tk-PPRE-luciferase vector at 10 uM after 24 hrs by transactivation assay relative to GW0742; assay type: cell-based; conditions: HEK-293T
T3 sequence (whole entry): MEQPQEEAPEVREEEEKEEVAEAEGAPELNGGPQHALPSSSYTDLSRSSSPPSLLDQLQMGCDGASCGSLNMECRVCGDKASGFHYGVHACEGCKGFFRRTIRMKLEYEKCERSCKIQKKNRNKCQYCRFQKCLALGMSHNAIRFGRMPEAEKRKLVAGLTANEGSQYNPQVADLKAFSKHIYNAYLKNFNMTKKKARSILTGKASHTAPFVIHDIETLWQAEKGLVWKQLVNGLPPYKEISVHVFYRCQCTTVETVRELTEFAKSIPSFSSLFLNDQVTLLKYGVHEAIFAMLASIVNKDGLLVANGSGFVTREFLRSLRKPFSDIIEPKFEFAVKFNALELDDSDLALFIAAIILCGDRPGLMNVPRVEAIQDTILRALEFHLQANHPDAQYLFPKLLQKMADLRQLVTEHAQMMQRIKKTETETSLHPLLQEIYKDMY

[9] = target: T4, Peroxisome proliferator-activated receptor alpha (Homo sapiens, UniProt Q07869); experiment: Agonist activity at PPAR-alpha (unknown origin) expressed in CV-1 cells co-transfected with tk-PPRE-luciferase vector after 24 hrs by transactivation assay; assay type: cell-based
T4 sequence (Q07869 whole entry): T1 sequence (whole entry)

[10] = target: T5, Peroxisome proliferator-activated receptor gamma (Homo sapiens, UniProt P37231); experiment: Agonist activity at PPAR-gamma (unknown origin) expressed in CV-1 cells co-transfected with tk-PPRE-luciferase vector after 24 hrs by transactivation assay; assay type: cell-based
T5 sequence (P37231 whole entry): T2 sequence (whole entry)

[11] = target: T6, Peroxisome proliferator-activated receptor delta (Homo sapiens, UniProt Q03181); experiment: Agonist activity at PPAR-delta (unknown origin) expressed in HEK293t cells co-transfected with tk-PPRE-luciferase vector after 24 hrs by transactivation assay; assay type: cell-based, HEK-293T
T6 sequence (Q03181 whole entry): T3 sequence (whole entry)

[12] = tested on: Liver microsome; experiment: Metabolic stability in human liver microsomes at 1 uM after 30 mins measured under phase 1 reaction by LC/MS/MS analysis; assay type: ADME; conditions: 0.5 h
[13] = Metabolic stability in mouse liver microsomes at 1 uM after 30 mins measured under phase 1 reaction by LC/MS/MS analysis; assay type: ADME; conditions: 0.5 h
[14] = Retention time of the compound by HPLC analysis; assay type: physicochemical
[15] = tested on: Liver microsome; experiment: Metabolic stability in human liver microsomes at 1 uM after 30 mins measured under phase 2 reaction by LC/MS/MS analysis; assay type: ADME; conditions: 0.5 h
[16] = Metabolic stability in mouse liver microsomes at 1 uM after 30 mins measured under phase 2 reaction by LC/MS/MS analysis; assay type: ADME; conditions: 0.5 h
[17] = tested on: Mus musculus; experiment: Effect on body weight in C57BLKS/J-Lepr/Lepr db/db mouse at 3 to 10 mg/kg, po qd for 18 days administered via gavage; assay type: ADME, organism-based; conditions: in vivo, 432 h
[18] = tested on: Mus musculus; experiment: Decrease in fasting blood glucose level in C57BLKS/J-Lepr/Lepr db/db mouse at 3 to 10 mg/kg, po qd for 18 days administered via gavage by ELISA; assay type: functional, organism-based
[19] = tested on: Mus musculus; experiment: Decrease in serum insulin level in C57BLKS/J-Lepr/Lepr db/db mouse at 3 to 10 mg/kg, po qd for 18 days administered via gavage by ELISA; assay type: functional, organism-based
[20] = tested on: Mus musculus; experiment: Decrease in serum Hb1Ac level in C57BLKS/J-Lepr/Lepr db/db mouse at 3 to 10 mg/kg, po qd for 18 days administered via gavage by ELISA; assay type: functional, organism-based
[21] = tested on: Mus musculus; experiment: Decrease in triglyceride content in C57BLKS/J-Lepr/Lepr db/db mouse liver at 3 mg/kg, po administered via gavage by hematoxylin-eosin staining; assay type: functional
[22] = tested on: Mus musculus; experiment: Decrease in size of adipocytes in C57BLKS/J-Lepr/Lepr db/db mouse white adipose tissue at 10 mg/kg, po administered via gavage by hematoxylin-eosin staining relative to untreated control; assay type: functional
[23] = tested on: Mus musculus; experiment: Decrease in size of adipocytes in C57BLKS/J-Lepr/Lepr db/db mouse white adipose tissue at 10 mg/kg, po administered via gavage by hematoxylin-eosin staining relative to rosiglitazone-treated control; assay type: functional

| Structure (SMILES) | Emax [6] [%] | Emax [7] [%] | Emax [8] [%] | EC50 [11] [µM] | Retention_time [14] [min] | also measured |
| --- | --- | --- | --- | --- | --- | --- |
| CN(CCOc1ccc(CC2SC(=O)NC2=O)cc1)c1ccccn1 (centres undefined) [ROSIGLITAZONE] |  |  |  |  |  | increase [1]: 10%; inhibition [2]: Active; inhibition [3]: Active; inhibition [4]: Active; Activity [5]: 22% |
| Cc1ccc(COc2cccc(OCCCOc3ccc4[nH]cc(CC(=O)O)c4c3)c2)cc1 | 69.3 | 134 | 84.1 | 7.2 | 8.984 | EC50 [9]: 13.8 µM; EC50 [10]: 1.7 µM; Stability [12]: Stable; Stability [13]: Stable |
| O=C(O)Cc1c[nH]c2ccc(OCCCOc3cccc(OCc4ccc(F)cc4)c3)cc12 | 25.8 | 66.9 | 32 |  | 7.106 |  |
| O=C(O)Cc1c[nH]c2ccc(OCCOc3cccc(OCc4ccc(Cl)cc4)c3)cc12 | 42.8 | 79.6 | 79 |  | 7.623 |  |
| Cc1ccc(COc2ccc(OCCCOc3ccc4[nH]cc(CC(=O)O)c4c3)cc2)cc1 | 41.2 | 91.7 | 53.3 |  | 7.89 |  |
| O=C(O)Cc1c[nH]c2ccc(OCCOc3cccc(OCc4ccc(C(F)(F)F)cc4)c3)cc12 | 43 | 103 | 83 |  | 7.193 |  |

Continued, in another order:

| Emax [6] [%] | Emax [7] [%] | Emax [8] [%] | EC50 [11] [µM] | Retention_time [14] [min] | Structure (SMILES) | also measured |
| --- | --- | --- | --- | --- | --- | --- |
| 25.8 | 90.9 | 122 | 6.3 | 10.127 | COc1ccc(COc2cccc(OCCOc3ccc4c(c3)c(CC(=O)O)cn4Cc3ccccc3)c2)cc1 | EC50 [9]: 5.9 µM; EC50 [10]: 1.9 µM; Stability [12]: Unstable; Stability [13]: Stable |
| 31.2 | 100 | 82 | 2.2 | 24.111 | O=C(O)Cc1cn(Cc2ccccc2)c2ccc(OCCCOc3cccc(OCc4ccc(Cl)cc4)c3)cc12 | EC50 [9]: 8.6 µM; EC50 [10]: 0.5 µM; Stability [12]: Stable; Stability [13]: Stable; Stability [15]: Stable; Stability [16]: Stable; Activity [17]: Non-toxic; inhibition [18]: Active; inhibition [19]: Active; inhibition [20]: Active; inhibition in vivo at 3 mg/kg [21]: 24%; inhibition in vivo at 10 mg/kg [22]: 18%; inhibition in vivo at 10 mg/kg [23]: 36% |
| 30.4 | 94.6 | 95.5 |  | 14.199 | O=C(O)Cc1cn(Cc2ccccc2)c2ccc(OCCCOc3cccc(OCc4ccccc4)c3)cc12 |  |
| 34.3 | 92.7 | 133 | 0.75 | 23.205 | O=C(O)Cc1cn(Cc2ccc(F)cc2)c2ccc(OCCCOc3cccc(OCc4ccc(Cl)cc4)c3)cc12 |  |
| 22.6 | 73.1 | 21.7 |  | 6.379 | O=C(O)Cc1c[nH]c2ccc(OCCCOc3cccc(OCc4ccccc4)c3)cc12 |  |
| 13.9 | 71.2 | 46.3 |  | 18.216 | O=C(O)Cc1cn(Cc2ccccc2)c2ccc(OCCCOc3cccc(Oc4ccccc4)c3)cc12 |  |
| 15.3 | 23.6 | 13.7 |  | 8.911 | O=C(O)Cc1cn(Cc2ccccc2)c2ccc(OCCOc3cccc(Cl)c3)cc12 |  |
| 26.5 | 130 | 90.2 | 9.4 | 18.125 | Cc1ccc(COc2cccc(OCCCOc3ccc4c(CC(=O)O)cn(Cc5ccccc5)c4c3)c2)cc1 | EC50 [9]: 19.2 µM; EC50 [10]: 1.3 µM; Stability [12]: Stable; Stability [13]: Stable; Stability [15]: Stable; Stability [16]: Stable |
